{"source": "patent US20230405035A1", "about": "“MONTBRETIN A FUNCTIONAL FOOD” (THE UNIVERSITY OF BRITISH COLUMBIA, priority 2020, published 2023)", "key": {"[1]": {"test": "HPLC analysis of MbA bread extracts (integrity of MbA after baking)", "format": "physicochemical", "conditions": "MbA baked in bread to an internal temperature of 100° C., methanol extract; control = MbA added after baking (MbA*)", "procedure": "MbA was added as a primary ingredient to a standard bread recipe and to evaluate the integrity of the additive after baking. To this end MbA was added (45 mg) as part of the raw dough (225 g) and separated into 25 g half-servings after kneading. After baking to an internal temperature of 100° C., the samples were extracted with methanol and subject to HPLC and kinetic analysis. In parallel, control samples containing no MbA (MbA−) or MbA added after baking (MbA*) were assessed in an analogous manner.\nTwo approximately 225 g batches of bread were prepared, one containing MbA the other with no MbA. For each batch: • 1. 5 mL of yeast was activated by mixing with 62.5 mL 43.3° C. water and ¼ tsp sucrose then incubated on the bench top for 10 min. • 2. ½ cup of all-purpose flour was mixed with ½ cup whole-wheat flour and ⅛ tsp NaCl (and 45 mg* MbA for the MbA+ batch only). *The target MbA concentration was 10 mg per serving of bread:\n[formula] • 3. The flour mixture was combined with the activated yeast mixture and 25 mL room temperature water then stirred until a dough formed. • 4. Dough kneaded for 10 min by hand. • 5. Dough was rested at room temperature for 30 min. • 6. […]\n100 μL of each bread extract was injected on HPLC as described above. MbA was quantified by integrating the MbA on the HPLC trace to standard curve of known MbA amounts."}, "[2]": {"target": "T1, human pancreatic α-amylase (HPA) (Homo sapiens, UniProt P04746)", "T1 sequence (P04746 16-511)": "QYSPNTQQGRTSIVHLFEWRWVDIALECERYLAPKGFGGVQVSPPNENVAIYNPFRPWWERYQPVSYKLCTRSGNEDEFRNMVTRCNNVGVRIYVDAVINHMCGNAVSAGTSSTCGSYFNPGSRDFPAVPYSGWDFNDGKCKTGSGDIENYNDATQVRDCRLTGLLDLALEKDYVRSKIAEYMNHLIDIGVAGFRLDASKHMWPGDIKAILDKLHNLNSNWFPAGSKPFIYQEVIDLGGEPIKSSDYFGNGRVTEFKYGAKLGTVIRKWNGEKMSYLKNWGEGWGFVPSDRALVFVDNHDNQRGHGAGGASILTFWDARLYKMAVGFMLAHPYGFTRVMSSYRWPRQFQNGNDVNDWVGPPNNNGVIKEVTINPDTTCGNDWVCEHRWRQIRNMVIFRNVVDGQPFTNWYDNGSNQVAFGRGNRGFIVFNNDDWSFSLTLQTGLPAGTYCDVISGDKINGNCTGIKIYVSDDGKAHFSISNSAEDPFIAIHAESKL", "test": "HPA inhibition IC50 assay with colorimetric substrate CNPG3", "format": "biochemical", "conditions": "following standard bread production processes", "procedure": "MbA inhibits the activity of human pancreatic α-amylase (HPA). To determine whether and to what extent the prepared bread extract inhibits HPA, enzymatic assays were performed with the colorimetric substrate 2-chloro-4-nitrophenyl-[…] (CNPG3).\nHPA inhibition activity of the bread prepared as described above was determined by monitoring CNPG3 concentration. 20 μL of 200, 100, 40, 20 or 8 mM CNPG3 were combined with 170 μL buffer (50 mM phosphate pH 7.0, 100 mM NaCl) in quartz cuvettes and placed in a CARYXXX UV/Vis spectrophotometer. • 2. To each of the five cuvettes, 10 μL of HPA solution was rapidly added to the 190 μL buffered substrate solution. • 3. Spectrophotometer was set to continuously measure absorbance at 400 nm over 5 min. • 4. […] Rates were calculated from t=1 to t=3 (Δ400 nm/min), plotted against CNPG3 concentration and fit with the Michaelis-Menten equation.\n20 μL of 40 mM CNPG was combined with 150 μL buffer and 20 μL MbA− or MbA+ bread extract (either ×100 or ×1000 diluted with water). […] Spectrophotometer was set to continuously measure absorbance at 400 nm over 5 min. • 4. Rates were calculated from t=1 to t=3 (Δ400 nm/min), plotted on a bar graph.\nThree sets of bread extractions were done to measure IC50: • A. Bread baked with MbA (MbA+) • B. Bread baked without MbA (MbA−) • C. […] IC50s were measured using the HPA/CNPG3 assay described above: • 1. […]"}}}
{"smiles": "CC1O[C@@H](O[C@@H]2CO[C@@H](Oc3c(O)cc(-c4oc5cc(O)cc(O)c5c(=O)c4O[C@@H]4OC(C)[C@H](O)[C@H](O)C4O[C@@H]4OC(COC(=O)/C=C/c5ccc(O)c(O)c5)[C@@H](O)[C@@H](O)C4O[C@@H]4OC(CO)[C@@H](O)[C@@H](O)C4O)cc3O)C(O)[C@@H]2O)C(O)[C@@H](O)[C@H]1O", "note": "(some centres unmarked) [MbA, Montbretin A]", "values": [{"measurement": "MbA intact relative to control (HPLC traces)", "setting": "[1]", "value": 84, "unit": "%"}, {"measurement": "activity retained relative to the unbaked controls (MbA*)", "setting": "[2]", "value": "greater than 80%"}]}
